Source: US12398120B2, “Substituted hydantoinamides as ADAMTS7 antagonists” (BAYER AKTIENGESELLSCHAFT, priority 2019, dated 2025)

Target: ADAMTS4 (Homo sapiens (Human), UniProt O75173)
Experiment: Selectivity assay for ADAMTS-7 modulators: ADAMTS4 (FRET substrate)
Format: biochemical
Details: ADAMTS4 (R&D 4307-AD) 50 nM, substrate Dabcyl-EEVKAKVQPY-Glu(Edans)-NH2 1 μM, 120 min, 32° C.
Outline: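 Human ADAMTS4 with compound in DMSO, or DMSO control; reaction started by adding FRET substrate in reaction buffer. Fluorescence increase measured at substrate-specific wavelengths. IC50 derived from % inhibition of enzyme activity versus compound concentration.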

Sequence of ADAMTS4 (O75173 213-685): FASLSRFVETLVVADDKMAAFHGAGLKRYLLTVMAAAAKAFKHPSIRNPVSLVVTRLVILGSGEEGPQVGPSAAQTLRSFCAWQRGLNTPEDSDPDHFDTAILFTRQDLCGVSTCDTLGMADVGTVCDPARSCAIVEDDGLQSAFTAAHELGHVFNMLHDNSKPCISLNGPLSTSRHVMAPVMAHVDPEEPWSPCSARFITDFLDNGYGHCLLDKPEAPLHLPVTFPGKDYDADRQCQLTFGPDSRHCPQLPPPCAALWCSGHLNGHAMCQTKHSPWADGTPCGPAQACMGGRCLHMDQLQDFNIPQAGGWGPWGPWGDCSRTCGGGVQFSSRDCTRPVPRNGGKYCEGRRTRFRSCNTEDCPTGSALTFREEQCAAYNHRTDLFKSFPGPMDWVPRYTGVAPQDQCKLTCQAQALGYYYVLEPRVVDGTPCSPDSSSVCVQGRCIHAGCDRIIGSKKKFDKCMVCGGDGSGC

Row | SMILES | IC50 [µM]
1 | Cc1nn(C)cc1C1(CNC(=O)c2ccccc2-c2ccc(C(F)(F)F)cc2)NC(=O)NC1=O (stereo not drawn) [Example 87, Ent-N-{[4-(1,3-Dimethyl-1H-Pyrazol-4-Yl)-2,5-Dioxoimidazolidin-4-Yl]Methyl}-4′-(Trifluoromethyl)[Biphenyl]-2-Carboxamide] | 6.9
2 | Cc1cnoc1C1(CNC(=O)c2ccccc2-c2ccc(C(F)(F)F)cc2)NC(=O)NC1=O (stereo not drawn) [Example 88, Ent-N-{[4-(4-Methyl-1,2-Oxazol-5-Yl)-2,5-Dioxoimidazolidin-4-Yl]Methyl}-4′-(Trifluoromethyl)[Biphenyl]-2-Carboxamide] | 9.1
3 | O=C1NC(=O)[C@](CNC(=O)c2ccc(C(F)(F)F)cc2-c2ccc(Cl)cc2)(C2CC2)N1 [Example 89, 4′-Chloro-N-{[(4R)-4-Cyclopropyl-2,5-Dioxoimidazolidin-4-Yl]Methyl}-5-(Trifluoromethyl)[1,1′-Biphenyl]-2-Carboxamide] | 7.6
4 | O=C1NC(=O)[C@](CNC(=O)c2cccnc2-c2ccc(Cl)cc2)(C2CC2)N1 [Example 90, 2-(4-Chlorophenyl)-N-{[(4R)-4-Cyclopropyl-2,5-Dioxoimidazolidin-4-Yl]Methyl}Pyridine-3-Carboxamide] | 50
5 | Cc1nsnc1C1(CNC(=O)c2ccccc2-c2ccc(C(F)(F)F)nc2)NC(=O)NC1=O (stereo not drawn) [Example 91, Ent-N-{[4-(4-Methyl-1,2,5-Thiadiazol-3-Yl)-2,5-Dioxoimidazolidin-4-Yl]Methyl}-2-[6-(Trifluoromethyl)Pyridin-3-Yl]Benzamide] | 30
6 | O=C1NC(=O)[C@](CNC(=O)c2ccc(OC(F)(F)F)cc2-c2ccc(C(F)(F)F)cc2)(C2CC2)N1 [Example 92, N-{[(4R)-4-Cyclopropyl-2,5-Dioxoimidazolidin-4-Yl]Methyl}-5-(Trifluoromethoxy)-4′-(Trifluoromethyl)[1,1′-Biphenyl]-2-Carboxamide] | 19
7 | O=C1NC(=O)[C@](CNC(=O)c2ccc(Cl)c(F)c2-c2ccc(C(F)(F)F)cc2)(C2CC2)N1 [Example 93, 5-Chloro-N-{[(4R)-4-Cyclopropyl-2,5-Dioxoimidazolidin-4-Yl]Methyl}-6-Fluoro-4′-(Trifluoromethyl)[1,1′-Biphenyl]-2-Carboxamide] | 3.4
8 | CC1(CNC(=O)c2ccccc2-c2ccc(C(F)(F)F)cc2)NC(=O)NC1=O (stereo not drawn) [Example 96, Ent-N-[(4-Methyl-2,5-Dioxoimidazolidin-4-Yl)Methyl]-4′-(Trifluoromethyl)[Biphenyl]-2-Carboxamide] | 46
9 | Cc1ccc(-c2cc(C(F)(F)F)ccc2C(=O)NC[C@@]2(C3CC3)NC(=O)NC2=O)cc1 [Example 99, N-{[(4R)-4-Cyclopropyl-2,5-Dioxoimidazolidin-4-Yl]Methyl}-4′-Methyl-5-(Trifluoromethyl)[Biphenyl]-2-Carboxamide] | 4.5
10 | Cc1ccc(-c2c(C)cccc2C(=O)NC[C@@]2(C3CC3)NC(=O)NC2=O)cc1 [Example 101, N-{[(4R)-4-Cyclopropyl-2,5-Dioxoimidazolidin-4-Yl]Methyl}-4′,6-Dimethyl[Biphenyl]-2-Carboxamide] | 3.2
11 | CCC(F)(F)c1ccc(-c2ccccc2C(=O)NC[C@@]2(C3CC3)NC(=O)NC2=O)cc1 [Example 102, N-{[(4R)-4-Cyclopropyl-2,5-Dioxoimidazolidin-4-Yl]Methyl}-4′-(1,1-Difluoropropyl)[Biphenyl]-2-Carboxamide] | 6.6
12 | COc1ccc(C(=O)NC[C@@]2(C3CC3)NC(=O)NC2=O)c(-c2ccc(C3CC3)cc2)c1 [Example 103, 4′-Cyclopropyl-N-{[(4R)-4-Cyclopropyl-2,5-Dioxoimidazolidin-4-Yl]Methyl}-5-Methoxy[Biphenyl]-2-Carboxamide] | 7.1
13 | O=C1NC(=O)[C@](CNC(=O)c2ccc(F)cc2-c2ccc(C3CC3)cc2)(C2CC2)N1 [Example 104, 4′-Cyclopropyl-N-{[(4R)-4-Cyclopropyl-2,5-Dioxoimidazolidin-4-Yl]Methyl}-5-Fluoro[Biphenyl]-2-Carboxamide] | 8.7
14 | O=C1NC(=O)[C@](CNC(=O)c2ccccc2-c2ccc(C3CC3)cc2)(C2CC2)N1 [Example 105, 4′-Cyclopropyl-N-{[(4R)-4-Cyclopropyl-2,5-Dioxoimidazolidin-4-Yl]Methyl}[Biphenyl]-2-Carboxamide] | 4.9
15 | CCc1ccc(-c2ccccc2C(=O)NC[C@@]2(C3CC3)NC(=O)NC2=O)cc1 [Example 106, N-{[(4R)-4-Cyclopropyl-2,5-Dioxoimidazolidin-4-Yl]Methyl}-4′-Ethyl[Biphenyl]-2-Carboxamide] | 5.4

Next, values leading:

Row | IC50 [µM] | SMILES
16 | 6.2 | COc1ccc(C(=O)NC[C@@]2(C3CC3)NC(=O)NC2=O)c(-c2ccc(C(F)(F)F)cc2)c1 [Example 107, N-{[(4R)-4-Cyclopropyl-2,5-Dioxoimidazolidin-4-Yl]Methyl}-5-Methoxy-4′-(Trifluoromethyl)[Biphenyl]-2-Carboxamide]
17 | 19 | O=C1NC(=O)[C@](CNC(=O)c2ccc(C(F)(F)F)cc2-c2ccc(C3CC3)cc2)(C2CC2)N1 [Example 108, 4′-Cyclopropyl-N-{[(4R)-4-Cyclopropyl-2,5-Dioxoimidazolidin-4-Yl]Methyl}-5-(Trifluoromethyl)[Biphenyl]-2-Carboxamide]
18 | 8.7 | Cc1cccc(C(=O)NC[C@@]2(C3CC3)NC(=O)NC2=O)c1-c1ccc(C(F)(F)F)cc1 [Example 109, N-{[(4R)-4-Cyclopropyl-2,5-Dioxoimidazolidin-4-Yl]Methyl}-6-Methyl-4′-(Trifluoromethyl)[Biphenyl]-2-Carboxamide]
19 | 7.9 | CCc1ccc(-c2cc(F)ccc2C(=O)NC[C@@]2(C3CC3)NC(=O)NC2=O)cc1 [Example 110, N-{[(4R)-4-Cyclopropyl-2,5-Dioxoimidazolidin-4-Yl]Methyl}-4′-Ethyl-5-Fluoro[Biphenyl]-2-Carboxamide]
20 | 7.9 | O=C1NC(=O)[C@](CNC(=O)c2ccccc2-c2ccc(C3CC3(F)F)cc2)(C2CC2)N1 (stereo partly drawn) [Example 111, N-{[(4R)-4-Cyclopropyl-2,5-Dioxoimidazolidin-4-Yl]Methyl}-4′-(2,2-Difluorocyclopropyl)[Biphenyl]-2-Carboxamide]
21 | 2.2 | O=C1NC(=O)[C@](CNC(=O)c2ccccc2-c2ccc(C3CCC3)cc2)(C2CC2)N1 [Example 112, 4′-Cyclobutyl-N-{[(4R)-4-Cyclopropyl-2,5-Dioxoimidazolidin-4-Yl]Methyl}[Biphenyl]-2-Carboxamide]
22 | 12 | CC(C)(C)c1ccc(-c2ccccc2C(=O)NC[C@@]2(C3CC3)NC(=O)NC2=O)cc1 [Example 113, 4′-Tert-Butyl-N-{[(4R)-4-Cyclopropyl-2,5-Dioxoimidazolidin-4-Yl]Methyl}[Biphenyl]-2-Carboxamide]
23 | 10.2 | O=C1NC(=O)[C@](CNC(=O)c2ccccc2-c2ccc(C(F)(F)F)cc2)(C2CC2)N1 [Example 114, N-{[(4R)-4-Cyclopropyl-2,5-Dioxoimidazolidin-4-Yl]Methyl}-4′-(Trifluoromethyl)[Biphenyl]-2-Carboxamide]
24 | 7.8 | O=C1NC(=O)[C@](CNC(=O)c2ccccc2-c2ccc(C3(C(F)(F)F)CC3)cc2)(C2CC2)N1 [Example 115, N-{[(4R)-4-Cyclopropyl-2,5-Dioxoimidazolidin-4-Yl]Methyl}-4′-[1-(Trifluoromethyl)Cyclopropyl][Biphenyl]-2-Carboxamide]
